Columns and labels:
[1] = test system: Atoh1 expression in mouse cerebellar neural precursor cells; experiment: Atoh1 induction assay in mouse cerebellar neural precursor cells (NPCs), Atoh1-GFP reporter; type: cell-based; conditions: 10 doses 50 μM to 200 nM, 72 hours treatment, DMSO control = 1, more than 5 considered significant, read-out: fold difference (maximum fold difference of GFP average intensity in cell nuclei over the DMSO control)
Experimental: (§1) Compounds of the present disclosure were assessed for their ability to increase the Atoh1 expression in mouse cerebellar neural precursor cells. The ability of compounds of the present disclosure to induce new hair cell formation was assessed in ex vivo hair cell induction assay using 6-day-postnatal mouse cochlea explants with hair cell damage.
Atoh1 Induction Assay in Mouse Cerebellar Neural Precursor Cells (NPCs)
Atoh1 induction assay was conducted with in vitro cultured cerebellar neural precursor cells isolated from neonatal transgenic Atoh1-GFP mice. Atoh1 expression is mainly regulated by the enhancer, and the nuclear GFP was driven by the cloned enhancer sequence at 3′ of Atoh1 which had high conservation among mammalians. So Atoh1 induction could be reflected by GFP activation in cerebellar neural precursor cells (Helms et al., Development 2000; 127: 1185-1196; Lumpkin et al., Gene Expression Patterns 2003; 3: 389-395). Postnatal 3 days pups were dissected for cerebellum tissue isolation. The cerebellum tissue was cut into small pieces, and dissociated with 0.05% Trypsin for about 10 minutes at 37° C., and then filtered with a 70 uM cell strainer. The cells were cultured as neuropsheres for the first 2 days in ultra-low attachment dish/well-plate with DMEM/F12+1% N2 &2% B27 with 1% P/S, 20 ng/ml rhFGF2 and 20 ng/ml rhEGF (R&D Systems). Then the spheres were plated to the matrigel (1:30 diluted in DMEM/F12)-coated tissue culture dish for monolayer culture. After 4.5-5.5 days culture in vitro (DIV), cells were dissociated with 0.05% trypsin into single cells, and frozen after cell number calculation.
The cerebellar neural precursor cells (NPCs) were re-thawed from stock and cultured for another 2 days before used for Atoh1 induction assay. On the first day of assay, NPCs were seeded into matrigel-coated 384 well plates (Black view-plate, PE) at 2500 cells/well. After over-night culture, the NPCs were treated with representative compounds of the present disclosure with 1:2 serial dilutions for 10 doses, from 50 μM to 200 nM, with DMSO as negative control. After 72 hours treatment without medium change, the cells were fixed with 4% formalin for staining. Assay plates were stained with GFP antibody (Abcam, #13970, 1:1000) to amplify endogenous GFP signal and then read by Cellomics.

[2] = test system: 6-day-postnatal mouse cochlea explants with hair cell damage; experiment: Ex vivo hair cell induction assay using 6-day-postnatal mouse cochlea explants with hair cell damage; type: cell-based; conditions: P6 Atoh1-GFP mouse cochlea explants, neomycin-damaged; 3 to 10 μM compound for 8 days, then 4 days blank medium; mean ± SD; DMSO = 0%; more than 20% considered significant
Experimental: as §1
Ex Vivo Hair Cell Induction Assay Using 6-Day-Postnatal Mouse Cochlea Explants with Hair Cell Damage
P6, postnatal 6 days, Atoh1-GFP mice, the same mouse strain used for Atoh1 induction assay described before, were used in this assay. The otic capsule was exposed and the cochleae were micro-dissected. […] and in vitro cultured in serum free medium (culture medium: DMEM/F12+1% N2+2% B27+5 μg/ml ampicillin) at 37° C. under a standard gas atmosphere of humidified air/5% CO2. Inner ear hair cells were damaged by 1 mM Neomycin treatment for 1.25 h. After the neomycin treatment, explants were cultured in blank culture medium for 7 days before the treatment of selected compounds.
For compound administration, the cochlea explants were treated with 3 to 10 μM compound of the present disclosure, with DMSO as the negative control for 8 days with once compound/medium change. After 8 days treatment, the tested compound was removed. The explants were cultured in blank medium for additional 4 days. The cochlea explant cultures then were fixed with 4% w/v formalin and processed for Myo7a immunofluorescence (Myo7a is a specific marker for sensory hair cell) using the rabbit anti-Myo7a antibody (Protus Biosci #25-6790, 1:250 diluted in PBS containing 3% BSA). Rhodamine labeled Goat-anti-rabbit IgG (Molecular Prob. #R6394, 1:1000 diluted in PBS containing 3% BSA) was used as the secondary antibody to visualize the Myo7a positive cells. The images were collected and analyzed using the EVOS image system (Thermo-Fisher Scientific). […] The hair cell identity of the ectopically formed cells was confirmed by staining the cells with multiple hair cell markers.
The efficacy of hair cells induction in this assay is represented by the responsive length percentage of Atoh1 and Myo7a double positive cells in the damaged whole explants after compound treatment. The responsive length percentage was calculated according to the equation of ((the explant length with Atoh1 and Myo7a double positive cells/the full length of cochlea explant)*100%). Note the value of DMSO control is 0% due to total damage of hair cells, and any responsive length percentage more than 20% is considered as significant hair cell induction.

SMILES	maximal fold induction [1]	Responsive length % (explant length with Atoh1 and Myo7a double positive cells / full length of cochlea explant) [2] [%]
CN1CCN(CCCCCNC(=O)c2cc(-c3cccs3)on2)CC1 [Example 8, N-(5-(4-Methylpiperazin-1-yl)pentyl)-5-(thiophen-2-yl)isoxazole-3-carboxamide]	30.9	54.0 ± 6.3
CN1CCN(CCCCCNC(=O)c2cc(-c3ccc(F)cc3)on2)CC1 [Example 10, 5-(4-Fluorophenyl)-N-(5-(4-methylpiperazin-1-yl)pentyl)isoxazole-3-carboxamide]	17.6	59.1 ± 9.1
O=C(NCCCCCN1CC2CCC(C1)N2)c1cc(-c2cccs2)on1 [Example 11, N-(5-(3,8-Diazabicyclo[3.2.1]octan-3-yl)pentyl)-5-(thiophen-2-yl)isoxazole-3-carboxamide]	12.4	51.7 ± 8.1
CN1C2CCC1CN(CCCCCNC(=O)c1cc(-c3cccs3)on1)C2 [Example 12, N-(5-(8-Methyl-3,8-diazabicyclo[3.2.1]octan-3-yl)pentyl)-5-(thiophen-2-yl)isoxazole-3-carboxamide]	21.1	39.7 ± 8.2
CC1CN(CCCCCNC(=O)c2cc(-c3cccs3)on2)CC(C)N1 (stereo not shown) [Example 14, N-(5-(3,5-Dimethylpiperazin-1-yl)pentyl)-5-(thiophen-2-yl)isoxazole-3-carboxamide]	29.1	45.3 ± 6.7
CC1CN(CCCCCNC(=O)c2cc(-c3cccs3)on2)CC(C)N1C (stereo not shown) [Example 15, 5-(Thiophen-2-yl)-N-(5-(3,4,5-trimethylpiperazin-1-yl)pentyl)isoxazole-3-carboxamide]	15.3	50.1 ± 9.9
COC(=O)NC1CN(CCCCCNC(=O)c2cc(-c3cccs3)on2)C1 [Example 17, Methyl (1-(5-(5-(thiophen-2-yl)isoxazole-3-carboxamido)pentyl)azetidin-3-yl)carbamate]	34.6	52.9 ± 6.8
NC(=O)C1CN(CCCCCNC(=O)c2cc(-c3cccs3)on2)C1 [Example 27, N-(5-(3-Carbamoylazetidin-1-yl)pentyl)-5-(thiophen-2-yl)isoxazole-3-carboxamide]	33.7	66.0 ± 2.4
O=C(NCCCCCN1CC[C@H](O)C1)c1cc(-c2cccs2)on1 [Example 36]	15.7	28.1 ± 6.3
CC(=O)N1CCN(CCCCCNC(=O)c2cc(-c3cccs3)on2)CC1 [Example 40]	21.5	36.9 ± 7.4
C[C@@H]1CN(CCCCCNC(=O)c2cc(-c3cccs3)on2)C[C@H](C)O1 [Example 42]	23.7	28.8 ± 8.3
O=C(NCCCCCN1CC[C@H](F)C1)c1cc(-c2cccs2)on1 [Example 45, (S)—N-(5-(3-fluoropyrrolidin-1-yl)pentyl)-5-(thiophen-2-yl)isoxazole-3-carboxamide]	24	51.9 ± 14.9
COC1CN(CCCCCNC(=O)c2cc(-c3cccs3)on2)C1 [Example 47]	27.8	64.4 ± 17.2
O=C(NCCCCCN1CC(O)C1)c1cc(-c2cccs2)on1 [Example 48]	37.5	75.8 ± 4.5
N#CCC1CN(CCCCCNC(=O)c2cc(-c3cccs3)on2)C1 [Example 49]	37.1	47.5 ± 9.2
O=C(NCCCCCN1CC2CCC(C1)O2)c1cc(-c2cccs2)on1 [Example 51, N-(5-(8-oxa-3-azabicyclo[3.2.1]octan-3-yl)pentyl)-5-(thiophen-2-yl)isoxazole-3-carboxamide]	9.9	48.6 ± 3.0
CN1CC2CCC1CN2CCCCCNC(=O)c1cc(-c2cccs2)on1 (stereo not shown) [Example 52, N-(5-(5-methyl-2,5-diazabicyclo[2.2.2]octan-2-yl)pentyl)-5-(thiophen-2-yl)isoxazole-3-carboxamide]	26.7	28.2 ± 11.9
O=C(NCCCCCN1CCC(F)CC1)c1cc(-c2cccs2)on1 [Example 53]	22.9	34.7 ± 9.8
O=C(NCCCCCN1CCN(CCO)CC1)c1cc(-c2cccs2)on1 [Example 54, N-(5-(4-(2-hydroxyethyl)piperazin-1-yl)pentyl)-5-(thiophen-2-yl)isoxazole-3-carboxamide]	27.8	35.6 ± 11.8
O=C(NCCCCCN1CC(CO)C1)c1cc(-c2cccs2)on1 [Example 55]	29	53.1 ± 6.2
O=C(NCCCCCN1CC(C(=O)NCCO)C1)c1cc(-c2ccc(F)cc2)on1 [Example 90, 5-(4-Fluorophenyl)-N-(5-(3-((2-hydroxyethyl)carbamoyl)azetidin-1-yl)pentyl)isoxazole-3-carboxamide]	19.1	–
O=C(NCCCCCN1CC(C(=O)N[C@H]2CCC[C@@H]2O)C1)c1cc(-c2ccc(F)cc2)on1 [Example 91, 5-(4-Fluorophenyl)-N-(5-(3-(((1S,2S)-2-hydroxycyclopentyl)carbamoyl)azetidin-1-yl)pentyl)isoxazole-3-carboxamide]	34.5	–
O=C(NCCCCCN1CC(C(=O)N[C@H]2C[C@@H](O)C2)C1)c1cc(-c2ccc(F)cc2)on1 [Example 92, 5-(4-Fluorophenyl)-N-(5-(3-(((1,3-cis)-3-hydroxycyclobutyl)carbamoyl)azetidin-1-yl)pentyl)isoxazole-3-carboxamide]	13	–
CC(=O)C1CN(CCCCCNC(=O)c2cc(-c3cccs3)on2)C1 [Example 93, N-(5-(3-Acetylazetidin-1-yl)pentyl)-5-(thiophen-2-yl)isoxazole-3-carboxamide]	12.4	–
O=C(NCCCCCN1CCn2cncc2C1)c1cc(-c2cccs2)on1 [Example 94, N-(5-(5,6-dihydroimidazo[1,5-a]pyrazin-7(8H)-yl)pentyl)-5-(thiophen-2-yl)isoxazole-3-carboxamide]	20.6	–
O=C(NCCCCCN1CC(c2ncc[nH]2)C1)c1cc(-c2cccs2)on1 [Example 95, N-(5-(3-(1H-imidazol-2-yl)azetidin-1-yl)pentyl)-5-(thiophen-2-yl)isoxazole-3-carboxamide]	21.8	–
